From patent US20240217966A1, “PHARMACEUTICAL COMPOSITION CONTAINING GLP-1 RECEPTOR AGONIST HAVING FUSED RING” (Shionogi & Co., Ltd., priority 2021, published 2024)
“And” between values parts separate entries of the source, which are not always exact repeats. Identical values can stand only once. Like-named read-outs stand apart in the source and are kept apart here.

Biological target: T1, Human GLP-1 receptor (Homo sapiens, UniProt P43220)
T1 construct: expressed in transfected cells
Experiment: Measurement of GLP-1 receptor agonist activity (cAMP assay)
Type: cell-based
Settings: cAMP increase in GLP-1 R/CHO-K1 cells, 2 nM human GLP-1 (7-36) = 100%, DMSO only = 0%
Procedure, shortened: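 Agonism measured as cAMP accumulation by time-resolved FRET immunoassay in CHO-K1 cells stably expressing human GLP-1 receptor. Cells treated for 1 h at 37 °C with compound and forskolin (400 μM stock), in buffer containing the PDE inhibitors IBMX (0.1 mM) and RO20-1724 (0.2 mM).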

[1] = CHO-K1, maximum effect, read-out: Emax

T1 sequence (P43220 24-463): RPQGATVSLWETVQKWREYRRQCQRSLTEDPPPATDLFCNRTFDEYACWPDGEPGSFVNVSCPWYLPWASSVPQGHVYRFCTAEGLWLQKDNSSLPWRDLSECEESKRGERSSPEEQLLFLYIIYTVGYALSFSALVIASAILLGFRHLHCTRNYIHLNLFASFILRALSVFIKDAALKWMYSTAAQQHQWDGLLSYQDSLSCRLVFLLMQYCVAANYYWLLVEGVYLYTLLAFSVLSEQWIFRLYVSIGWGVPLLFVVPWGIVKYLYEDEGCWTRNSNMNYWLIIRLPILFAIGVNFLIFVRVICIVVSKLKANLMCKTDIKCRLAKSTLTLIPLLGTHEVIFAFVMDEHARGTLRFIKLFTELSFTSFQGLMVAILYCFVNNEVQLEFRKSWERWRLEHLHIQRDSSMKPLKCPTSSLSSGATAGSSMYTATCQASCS

Compound	Emax [1] [%]	EC50	Emax (maximum effect) [%]
C[C@H]1c2cc(OCc3ccc(Cl)cc3Cl)c(Cl)cc2CCN1Cc1nc2ccc(C(=O)O)c(F)c2n1C[C@@H]1CCO1 [Compound I-325]	105	0.655 nM	
C[C@H]1c2cc(OCc3cc(F)c(Cl)cc3F)c(Cl)cc2CCN1Cc1nc2ccc(C(=O)O)c(F)c2n1C[C@@H]1CCO1 [Compound I-326]	109	1.31 nM	
C[C@H]1c2cc(OCc3ccc(OC(F)F)cc3F)c(Cl)cc2CCN1Cc1nc2ccc(C(=O)O)c(F)c2n1C[C@@H]1CCO1 [Compound I-327]	100	1.06 nM	
C[C@H]1c2cc(OCc3c(F)cc(F)cc3F)c(Cl)cc2CCN1Cc1nc2ccc(C(=O)O)c(F)c2n1C[C@@H]1CCO1 [Compound I-328]	87.3	1.73 nM	
C[C@H]1c2cc(OCc3c(F)cc(Cl)cc3F)c(Cl)cc2CCN1Cc1nc2ccc(C(=O)O)c(F)c2n1C[C@@H]1CCO1 [Compound I-329]	96.7	1.16 nM	
Cc1ccc(COc2cc3c(cc2Cl)CCN(Cc2nc4c(F)cc(C(=O)O)cc4n2C[C@@H]2CCO2)[C@H]3C)cc1 [Compound I-330]	93	1.22 nM	
COc1ccc(COc2cc3c(cc2Cl)CCN(Cc2nc4c(F)cc(C(=O)O)cc4n2C[C@@H]2CCO2)[C@H]3C)cc1 [Compound I-331]	102	2.7 nM	
C[C@H]1c2cc(OCc3ccc(Cl)cc3)c(Cl)cc2CCN1Cc1nc2c(F)cc(C(=O)O)cc2n1C[C@@H]1CCO1 [Compound I-332]	105	1.38 nM	
C[C@H]1c2cc(OCc3ccc(C4CC4)cc3)c(Cl)cc2CCN1Cc1nc2c(F)cc(C(=O)O)cc2n1C[C@@H]1CCO1 [Compound I-333]	116	8.05 nM	
COc1cc(Cl)ccc1COc1cc2c(cc1Cl)CCN(Cc1nc3c(F)cc(C(=O)O)cc3n1C[C@@H]1CCO1)[C@H]2C [Compound I-334]	114	0.223 nM	
C[C@H]1c2cc(OCc3ccc(F)cc3F)c(Cl)cc2CCN1Cc1nc2c(F)cc(C(=O)O)cc2n1C[C@@H]1CCO1 [Compound I-335]	98	1.23 nM	
C[C@H]1c2cc(OCc3ccc(Cl)cc3F)c(Cl)cc2CCN1Cc1nc2c(F)cc(C(=O)O)cc2n1C[C@@H]1CCO1 [Compound I-336]	100	0.696 nM	
C[C@H]1c2cc(OCc3ccc(Cl)cc3Cl)c(Cl)cc2CCN1Cc1nc2c(F)cc(C(=O)O)cc2n1C[C@@H]1CCO1 [Compound I-337]	104	0.325 nM	
C[C@H]1c2cc(OCc3cc(F)c(Cl)cc3F)c(Cl)cc2CCN1Cc1nc2c(F)cc(C(=O)O)cc2n1C[C@@H]1CCO1 [Compound I-338]	100	1.27 nM	
C[C@H]1c2cc(OCc3c(F)cc(Cl)cc3F)c(Cl)cc2CCN1Cc1nc2c(F)cc(C(=O)O)cc2n1C[C@@H]1CCO1 [Compound I-339]	105	0.377 nM	
COc1cc(C(=O)O)cc2c1nc(CN1CCc3cc(Cl)c(OCc4ccc(C)cc4)cc3[C@@H]1C)n2C[C@@H]1CCO1 [Compound I-340]	105	0.31 nM	
COc1cc(C(=O)O)cc2c1nc(CN1CCc3cc(Cl)c(OCc4ccc(Cl)cc4)cc3[C@@H]1C)n2C[C@@H]1CCO1 [Compound I-341]	125	0.236 nM	
COc1cc(C(=O)O)cc2c1nc(CN1CCc3cc(Cl)c(OCc4ccc(C5CC5)cc4)cc3[C@@H]1C)n2C[C@@H]1CCO1 [Compound I-342]	97.3	1.95 nM	
COc1cc(Cl)ccc1COc1cc2c(cc1Cl)CCN(Cc1nc3c(OC)cc(C(=O)O)cc3n1C[C@@H]1CCO1)[C@H]2C [Compound I-343]	111	0.063 nM	
COc1cc(C(=O)O)cc2c1nc(CN1CCc3cc(Cl)c(OCc4ccc(Cl)cc4F)cc3[C@@H]1C)n2C[C@@H]1CCO1 [Compound I-344]	110	0.0824 nM	
COc1cc(C(=O)O)cc2c1nc(CN1CCc3cc(Cl)c(OCc4ccc(Cl)cc4Cl)cc3[C@@H]1C)n2C[C@@H]1CCO1 [Compound I-345]	129	0.096 nM	
COc1cc(C(=O)O)cc2c1nc(CN1CCc3cc(Cl)c(OCc4cc(F)c(Cl)cc4F)cc3[C@@H]1C)n2C[C@@H]1CCO1 [Compound I-346]	117	0.354 nM	
Cc1ccc(COc2nc3c(cc2C(F)(F)F)CCN(Cc2nc4ccc(C(=O)O)nc4n2C[C@@H]2CCO2)[C@H]3C)cc1 [Compound I-347]	110	0.241 nM	
C[C@H]1c2nc(OCc3ccc(Cl)cc3)c(C(F)(F)F)cc2CCN1Cc1nc2ccc(C(=O)O)nc2n1C[C@@H]1CCO1 [Compound I-348]	129	0.206 nM	
C[C@H]1c2nc(OCc3ccc(C4CC4)cc3)c(C(F)(F)F)cc2CCN1Cc1nc2ccc(C(=O)O)nc2n1C[C@@H]1CCO1 [Compound I-349]	117	1.27 nM	

Compound	Emax [1] [%]	EC50	Emax (maximum effect) [%]
COc1cc(Cl)ccc1COc1nc2c(cc1C(F)(F)F)CCN(Cc1nc3ccc(C(=O)O)nc3n1C[C@@H]1CCO1)[C@H]2C [Compound I-350]	113	0.0964 nM	
C[C@H]1c2nc(OCc3ccc(Cl)cc3Cl)c(C(F)(F)F)cc2CCN1Cc1nc2ccc(C(=O)O)nc2n1C[C@@H]1CCO1 [Compound I-351]	121	0.156 nM	
C[C@H]1c2nc(OCc3cc(F)c(Cl)cc3F)c(C(F)(F)F)cc2CCN1Cc1nc2ccc(C(=O)O)nc2n1C[C@@H]1CCO1 [Compound I-352]	113	0.122 nM	
Cc1ccc(COc2nc3c(cc2C(F)(F)F)CCN(Cc2nc4ccc(C(=O)O)c(F)c4n2C[C@@H]2CCO2)[C@H]3C)cc1 [Compound I-353]	115	0.0558 nM	
COc1ccc(COc2nc3c(cc2C(F)(F)F)CCN(Cc2nc4ccc(C(=O)O)c(F)c4n2C[C@@H]2CCO2)[C@H]3C)cc1 [Compound I-354]	122	0.139 nM	
C[C@H]1c2nc(OCc3ccc(Cl)cn3)c(C(F)(F)F)cc2CCN1Cc1nc2ccc(C(=O)O)c(F)c2n1C[C@@H]1CCO1 [Compound I-355]	119	0.102 nM	
C[C@H]1c2nc(OCc3ccc(C4CC4)cc3)c(C(F)(F)F)cc2CCN1Cc1nc2ccc(C(=O)O)c(F)c2n1C[C@@H]1CCO1 [Compound I-356]	118	0.25 nM	
COc1cc(Cl)ccc1COc1nc2c(cc1C(F)(F)F)CCN(Cc1nc3ccc(C(=O)O)c(F)c3n1C[C@@H]1CCO1)[C@H]2C [Compound I-357]	123	0.0425 nM	
C[C@H]1c2nc(OCc3ccc(F)cc3F)c(C(F)(F)F)cc2CCN1Cc1nc2ccc(C(=O)O)c(F)c2n1C[C@@H]1CCO1 [Compound I-359]	123	0.0474 nM	
C[C@H]1c2nc(OCc3ccc(OC(F)F)cc3F)c(C(F)(F)F)cc2CCN1Cc1nc2ccc(C(=O)O)c(F)c2n1C[C@@H]1CCO1 [Compound I-360]	115	0.104 nM	
C[C@H]1c2nc(OCc3c(F)cc(F)cc3F)c(C(F)(F)F)cc2CCN1Cc1nc2ccc(C(=O)O)c(F)c2n1C[C@@H]1CCO1 [Compound I-361]	108	0.0778 nM	
C[C@H]1c2nc(OCc3c(F)cc(Cl)cc3F)c(C(F)(F)F)cc2CCN1Cc1nc2ccc(C(=O)O)c(F)c2n1C[C@@H]1CCO1 [Compound I-362]	133	0.0408 nM	
Cc1ccc(COc2nc3c(cc2C(F)(F)F)CCN(Cc2nc4c(F)cc(C(=O)O)cc4n2C[C@@H]2CCO2)[C@H]3C)cc1 [Compound I-363]	115	0.0911 nM	
COc1ccc(COc2nc3c(cc2C(F)(F)F)CCN(Cc2nc4c(F)cc(C(=O)O)cc4n2C[C@@H]2CCO2)[C@H]3C)cc1 [Compound I-364]	118	0.148 nM	
C[C@H]1c2nc(OCc3ccc(Cl)cn3)c(C(F)(F)F)cc2CCN1Cc1nc2c(F)cc(C(=O)O)cc2n1C[C@@H]1CCO1 [Compound I-365]	115	0.0736 nM	
C[C@H]1c2nc(OCc3ccc(C4CC4)cc3)c(C(F)(F)F)cc2CCN1Cc1nc2c(F)cc(C(=O)O)cc2n1C[C@@H]1CCO1 [Compound I-366]	114	0.421 nM	
COc1cc(Cl)ccc1COc1nc2c(cc1C(F)(F)F)CCN(Cc1nc3c(F)cc(C(=O)O)cc3n1C[C@@H]1CCO1)[C@H]2C [Compound I-367]	107	0.0214 nM	
C[C@H]1c2nc(OCc3ccccc3Cl)c(C(F)(F)F)cc2CCN1Cc1nc2c(F)cc(C(=O)O)cc2n1C[C@@H]1CCO1 [Compound I-368]	120	0.136 nM and 0.2 nM	102
C[C@H]1c2nc(OCc3ccc(F)cc3F)c(C(F)(F)F)cc2CCN1Cc1nc2c(F)cc(C(=O)O)cc2n1C[C@@H]1CCO1 [Compound I-369]	112	0.0526 nM	
C[C@H]1c2nc(OCc3ccc(OC(F)F)cc3F)c(C(F)(F)F)cc2CCN1Cc1nc2c(F)cc(C(=O)O)cc2n1C[C@@H]1CCO1 [Compound I-370]	109	0.143 nM	
C[C@H]1c2nc(OCc3c(F)cc(F)cc3F)c(C(F)(F)F)cc2CCN1Cc1nc2c(F)cc(C(=O)O)cc2n1C[C@@H]1CCO1 [Compound I-371]	122	0.0495 nM	
C[C@H]1c2nc(OCc3c(F)cc(Cl)cc3F)c(C(F)(F)F)cc2CCN1Cc1nc2c(F)cc(C(=O)O)cc2n1C[C@@H]1CCO1 [Compound I-372]	117	0.023 nM	
COc1cc(C(=O)O)cc2c1nc(CN1CCc3cc(C(F)(F)F)c(OCc4ccc(C)cc4)nc3[C@@H]1C)n2C[C@@H]1CCO1 [Compound I-373]	122	0.0194 nM	
COc1cc(C(=O)O)cc2c1nc(CN1CCc3cc(C(F)(F)F)c(OCc4ccc(Cl)cc4)nc3[C@@H]1C)n2C[C@@H]1CCO1 [Compound I-374]	100	0.0208 nM	
